Laboratory results published in patent US20160324172A1, “Post-Harvest Coating for Fresh Produce” (Jones-Hamilton Co., priority 2015, published 2016).

Experiment: Solubility of emulsifier/stabilizer in the coating solution (visual evaluation)
Type: physicochemical
Method: For this experiment, coating solutions consisted of: 200 g tap water, 14 g SAS (7 w %), 30 g cornstarch (15 w %), and varying amounts of diverse emulsifiers/stabilizers.
Treatment: For each emulsifying material, one grape tomato was soaked for 1 minute in respective coating solution, and allowed to dry on a cooling tray. If material generated a visually preferred coating, 8 more grape tomatoes were coated (ntotal=9) in the same solution to generate enough samples for a microbial test. […] A second grape tomato was soaked, and if the stickiness improved, the concentration of the emulsifying ingredient was further increased until preferred coating was achieved. 8 more tomatoes were coated at preferred concentration (ntotal=9) for microbial testing.
Evaluation: Coatings were photographed and evaluated visually after the material dried. Microbial test of tomatoes with preferred coatings: Grape tomatoes were stored for 7 days at room temperature on cooling trays. Three tomatoes (triplicates) were swabbed with pre-wetted cotton swabs after: 24 hours, 3 days and 7 days. For dilution purpose, the swabs were transferred to Eppendorf tubes with 1 ml PBS. Three 1 ul loops (triplicates) were used to transfer three 1 ul samples per Eppendorf tube to nutrient agar plates. Per swab: 1 Eppendorf tubes and 3 nutrient agar plates. Per tomato: 3 Eppendorf tubes and 9 nutrient agar plates. Nutrient agar plates were incubated at room temperature for 7 days. Colony forming units were counted after: 24 hours, 3 days and 7 days.

## OCC(O)CO [Vegetable glycerin, glycerin]
  solubility in the water-based coating solution: good solubility
200 g tap water, 14 g SAS, 30 g cornstarch plus emulsifier, visual evaluation
  Coating solution (Solubility of emulsifier/stabilizer): Good
Overall assessment, solubility in coating solution
  Solubility: Good
